We go through nine molecules from ChEMBL document CHEMBL4422678, “Design and synthesis of novel dual-cyclic RGD peptides for αvβ3 integrin targeting” (Bioorg Med Chem Lett, 2019).

The source made the active and inactive calls. The rule behind the calls is not given here. *1 amine or outer side, *2 acyl side, *3 side chain or, on linkers, in order; H or OH if unused. Where a SMILES comes first, the peptide text is derived from it. [ ]: non-standard residue; d: D form. The star is where a group is joined. Dolaproine = CO[C@@H]([C@@H]1CCCN1)[C@@H](C)C(=O)O; X1 = O=C(CCCCC(=O)*)N1Cc2ccccc2C#Cc2ccccc21; Dil = CC[C@H](C)[C@H](NC)[C@@H](CC(=O)O)OC; PABC = O=C(OCc1ccc(N[*:1])cc1)[*:2]; X2 = C[C@@H](N*)[C@@H](O)c1ccccc1; NMeV = CN[C@H](C(=O)O)C(C)C

The subject of assay [1] is SK-OV-3. The assay is described as follows: Cytotoxicity against human SKOV3 cells assessed as inhibition of cell growth after 72 hrs by CCK8 assay. The format is functional, cell-based. The conditions noted are these: SK-OV-3, 72 h.
For assay [2], the system named is MCF7. In words: Cytotoxicity against human MCF7 cells assessed as inhibition of cell growth after 72 hrs by CCK8 assay. The format is functional, cell-based. The conditions noted are these: MCF7, 72 h. (In general: Tetrazolium assays rely on reduction of a dye to a coloured formazan, in cell work by metabolically active cells.)
In assay [3] the target is T1, Integrin alpha-V/beta-3 (Homo sapiens, UniProt P05106+P06756). In words: Binding affinity to alphaVbeta3 integrin in human SKOV3 cells assessed as inhibition of cell adhesion to fibrinogen measured after 2 hrs by MTT assay. Type of assay: cell-based.
Target sequence in this assay (P05106 27-788 limits assumed): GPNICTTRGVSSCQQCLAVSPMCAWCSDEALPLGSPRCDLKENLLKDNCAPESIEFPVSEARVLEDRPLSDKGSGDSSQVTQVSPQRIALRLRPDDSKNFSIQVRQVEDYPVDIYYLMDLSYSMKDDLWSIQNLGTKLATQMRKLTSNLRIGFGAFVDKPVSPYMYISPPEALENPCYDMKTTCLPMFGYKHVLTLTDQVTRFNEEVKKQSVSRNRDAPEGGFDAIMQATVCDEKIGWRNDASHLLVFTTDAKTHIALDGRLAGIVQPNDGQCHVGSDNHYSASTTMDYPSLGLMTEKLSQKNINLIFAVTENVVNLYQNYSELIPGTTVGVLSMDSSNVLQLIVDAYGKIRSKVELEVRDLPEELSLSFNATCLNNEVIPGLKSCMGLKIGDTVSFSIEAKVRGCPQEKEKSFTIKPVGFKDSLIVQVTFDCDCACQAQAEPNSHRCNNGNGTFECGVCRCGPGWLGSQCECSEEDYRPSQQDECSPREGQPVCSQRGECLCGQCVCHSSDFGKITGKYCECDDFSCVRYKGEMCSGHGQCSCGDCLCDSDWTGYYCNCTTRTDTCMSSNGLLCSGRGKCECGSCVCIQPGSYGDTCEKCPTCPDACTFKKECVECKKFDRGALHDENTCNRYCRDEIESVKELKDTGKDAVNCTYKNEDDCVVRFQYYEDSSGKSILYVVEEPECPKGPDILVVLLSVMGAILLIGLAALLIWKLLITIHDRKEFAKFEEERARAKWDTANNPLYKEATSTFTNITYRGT
Target sequence in this assay (P06756 31-889 limits assumed): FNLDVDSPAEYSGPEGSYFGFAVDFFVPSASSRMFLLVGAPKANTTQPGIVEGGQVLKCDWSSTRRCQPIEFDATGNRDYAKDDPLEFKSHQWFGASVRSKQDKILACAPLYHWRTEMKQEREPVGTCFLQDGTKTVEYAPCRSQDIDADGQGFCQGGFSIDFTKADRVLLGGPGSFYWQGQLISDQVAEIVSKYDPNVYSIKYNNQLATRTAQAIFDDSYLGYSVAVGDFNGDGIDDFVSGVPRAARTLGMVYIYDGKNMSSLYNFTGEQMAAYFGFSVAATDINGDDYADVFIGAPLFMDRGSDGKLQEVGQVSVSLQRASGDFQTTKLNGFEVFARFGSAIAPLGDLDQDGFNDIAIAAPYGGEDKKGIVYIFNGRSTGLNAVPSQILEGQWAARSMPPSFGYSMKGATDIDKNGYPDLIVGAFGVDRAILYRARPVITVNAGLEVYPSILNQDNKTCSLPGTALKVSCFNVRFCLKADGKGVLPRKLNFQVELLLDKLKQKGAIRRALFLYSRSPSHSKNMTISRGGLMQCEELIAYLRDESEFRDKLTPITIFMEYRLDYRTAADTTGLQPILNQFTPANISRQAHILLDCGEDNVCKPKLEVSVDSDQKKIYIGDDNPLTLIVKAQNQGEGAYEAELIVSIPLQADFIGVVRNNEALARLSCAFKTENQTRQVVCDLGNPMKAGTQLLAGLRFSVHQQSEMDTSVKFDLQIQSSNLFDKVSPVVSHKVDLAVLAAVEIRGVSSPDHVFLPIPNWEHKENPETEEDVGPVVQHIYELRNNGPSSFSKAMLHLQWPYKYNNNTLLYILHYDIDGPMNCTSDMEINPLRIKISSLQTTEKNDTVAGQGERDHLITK
Target sequence in this assay (P06756 891-1048 limits assumed): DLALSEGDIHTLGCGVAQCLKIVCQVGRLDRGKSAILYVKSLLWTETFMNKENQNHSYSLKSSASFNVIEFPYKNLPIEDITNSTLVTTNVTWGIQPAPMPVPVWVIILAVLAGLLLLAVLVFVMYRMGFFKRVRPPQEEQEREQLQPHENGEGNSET
For assay [4], the target named is T1, Integrin alpha-V/beta-3. In words: Binding affinity to alphaVbeta3 integrin in human SKOV3 cells at 200 uM incubated for 3 hrs followed by compound washout prior to DBCO-Cy5 addition and measured after 1 hr by DAPI staining based fluorescence microscopic analysis. Type of assay: cell-based.
Assay [5] deals with SK-OV-3. The assay is described as follows: Cytotoxicity against human SKOV3 cells assessed as inhibition of cell growth at 40 uM after 72 hrs by CCK8 assay. Type of assay: functional. The conditions noted are these: SK-OV-3, 72 h, read-out: GI.
Assay [6] concerns MCF7. The assay is described as follows: Cytotoxicity against human MCF7 cells assessed as inhibition of cell growth at 0.04 uM after 72 hrs by CCK8 assay. Type of assay: functional. The conditions noted are these: MCF7, 72 h, read-out: GI.
The test system of assay [7] is SK-OV-3. In words: Cytotoxicity against human SKOV3 cells assessed as inhibition of cell growth at 0.0004 uM after 72 hrs by CCK8 assay. The conditions noted are these: SK-OV-3, 72 h, read-out: GI. Type of assay: functional.
Assay [8] has as its system MCF7. In words: Cytotoxicity against human MCF7 cells assessed as inhibition of cell growth at 4 uM after 72 hrs by CCK8 assay. Type of assay: functional. Particulars: MCF7, 72 h, read-out: GI.
Assay [9] deals with SK-OV-3. The assay is described as follows: Cytotoxicity against human SKOV3 cells assessed as inhibition of cell growth at 0.4 uM after 72 hrs by CCK8 assay. The conditions noted are these: SK-OV-3, 72 h, read-out: GI. Type of assay: functional.
In assay [10] the test system is MCF7. In words: Cytotoxicity against human MCF7 cells assessed as inhibition of cell growth at 0.0004 uM after 72 hrs by CCK8 assay. Type of assay: functional. The conditions noted are these: MCF7, 72 h, read-out: GI.
Assay [11] has as its system MCF7. The assay is described as follows: Cytotoxicity against human MCF7 cells assessed as inhibition of cell growth at 0.004 uM after 72 hrs by CCK8 assay. Type of assay: functional. Particulars: MCF7, 72 h, read-out: GI.
Assay [12] relates to SK-OV-3. The assay is described as follows: Cytotoxicity against human SKOV3 cells assessed as inhibition of cell growth at 0.004 uM after 72 hrs by CCK8 assay. The format is functional. The conditions noted are these: SK-OV-3, 72 h, read-out: GI.
Assay [13] has as its system SK-OV-3. In words: Cytotoxicity against human SKOV3 cells assessed as inhibition of cell growth at 0.04 uM after 72 hrs by CCK8 assay. Particulars: SK-OV-3, 72 h, read-out: GI. Type of assay: functional.
For assay [14], the system named is SK-OV-3. The assay is described as follows: Cytotoxicity against human SKOV3 cells assessed as inhibition of cell growth at 400 uM after 72 hrs by CCK8 assay. Type of assay: functional. Particulars: SK-OV-3, 72 h, read-out: GI.
In assay [15] the test system is MCF7. The assay is described as follows: Cytotoxicity against human MCF7 cells assessed as inhibition of cell growth at 0.4 uM after 72 hrs by CCK8 assay. Type of assay: functional. Particulars: MCF7, 72 h, read-out: GI.
For assay [16], the system named is MCF7. The assay is described as follows: Cytotoxicity against human MCF7 cells assessed as inhibition of cell growth at 400 uM after 72 hrs by CCK8 assay. The format is functional. The conditions noted are these: MCF7, 72 h, read-out: GI.
Assay [17] concerns SK-OV-3. In words: Cytotoxicity against human SKOV3 cells assessed as inhibition of cell growth at 4 uM after 72 hrs by CCK8 assay. Type of assay: functional. The conditions noted are these: SK-OV-3, 72 h, read-out: GI.
Assay [18] deals with MCF7. In words: Cytotoxicity against human MCF7 cells assessed as inhibition of cell growth at 40 uM after 72 hrs by CCK8 assay. The format is functional. Particulars: MCF7, 72 h, read-out: GI.

Consider `CC[C@H](C)[C@@H]([C@@H](CC(=O)N1CCC[C@H]1[C@H](OC)[C@@H](C)C(=O)N[C@H](C)[C@@H](O)c1ccccc1)OC)N(C)C(=O)[C@@H](NC(=O)[C@H](C(C)C)N(C)C(=O)OCc1ccc(NC(=O)[C@H](CCCNC(=N)N)NC(=O)[C@@H](NC(=O)CCCCC(=O)N2Cc3ccccc3-c3nnn(CCCC(=O)NCCCC[C@@H]4NC(=O)[C@H](Cc5ccccc5)NC(=O)[C@H](CC(=O)O)NC(=O)CNC(=O)[C@H](CCCN=C(N)N)NC4=O)c3-c3ccccc32)C(C)C)cc1)C(C)C`, for which the IC50 (as a rule, the midpoint of a concentration-inhibition curve) with SK-OV-3 [1] came to 4500 nM; with MCF7 [2], 93.2 µM.
As to `[N-]=[N+]=NCCCC(=O)N[C@@H](CCCNC(=N)N)C(=O)NCC(=O)N[C@@H](CC(=O)N[C@H]1CSSC[C@@H](C(=O)O)NC(=O)[C@H](CC(=O)O)NC(=O)CNC(=O)[C@H](CCCNC(=N)N)NC(=O)[C@H](CC(=O)O)NC(=O)CNC(=O)[C@H](CCCNC(=N)N)NC1=O)C(=O)N[C@@H](CCCNC(=N)N)C(=O)NCC(=O)N[C@@H](CC(=O)O)C(=O)N[C@@H](CCCNC(=N)N)C(=O)NCC(=O)N[C@@H](CC(=O)O)C(=O)NCCCC[C@@H]1NC(=O)[C@H](Cc2ccccc2)NC(=O)[C@H](CC(=O)O)NC(=O)CNC(=O)[C@H](CCCN=C(N)N)NC1=O`, at Integrin alpha-V/beta-3 [3], the IC50 came to 24.5 µM.
With `[N-]=[N+]=NCCCC(=O)N[C@@H](CCCNC(=N)N)C(=O)NCC(=O)N[C@@H](CC(=O)O)C(=O)N[C@@H](CCCNC(=N)N)C(=O)NCC(=O)N[C@@H](CC(=O)N[C@H]1CSSC[C@@H](C(=O)O)NC(=O)[C@H](CC(=O)O)NC(=O)CNC(=O)[C@H](CCCNC(=N)N)NC(=O)[C@H](CC(=O)O)NC(=O)CNC(=O)[C@H](CCCNC(=N)N)NC1=O)C(=O)NCCCC[C@@H]1NC(=O)[C@H](Cc2ccccc2)NC(=O)[C@H](CC(=O)O)NC(=O)CNC(=O)[C@H](CCCN=C(N)N)NC1=O`, the IC50 on Integrin alpha-V/beta-3 [3] stood at 4.2 µM. In addition, the result on Integrin alpha-V/beta-3 [4] was Active.
Consider `[N-]=[N+]=NCCCC(=O)N[C@@H](CCCNC(=N)N)C(=O)NCC(=O)N[C@@H](CC(=O)O)C(=O)N[C@@H](CCCNC(=N)N)C(=O)NCC(=O)N[C@@H](CC(=O)O)C(=O)NCCCC[C@@H]1NC(=O)[C@H](Cc2ccccc2)NC(=O)[C@H](CC(=O)O)NC(=O)CNC(=O)[C@H](CCCN=C(N)N)NC1=O`, for which the IC50 at Integrin alpha-V/beta-3 [3] was found to be 25.1 µM.
On the same count and under the same terms, in the case of `[N-]=[N+]=NCCCC(=O)N[C@@H](CCCNC(=N)N)C(=O)NCC(=O)N[C@@H](CC(=O)O)C(=O)N[C@@H](CCCNC(=N)N)C(=O)NCC(=O)N[C@@H](CC(=O)NCCCC[C@@H]1NC(=O)[C@H](Cc2ccccc2)NC(=O)[C@H](CC(=O)O)NC(=O)CNC(=O)[C@H](CCCN=C(N)N)NC1=O)C(=O)NCCCC[C@@H]1NC(=O)[C@H](Cc2ccccc2)NC(=O)[C@H](CC(=O)O)NC(=O)CNC(=O)[C@H](CCCN=C(N)N)NC1=O` it was 8.9 µM.
On to `[N-]=[N+]=NCCCC(=O)NCCCC[C@@H]1NC(=O)[C@H](Cc2ccccc2)NC(=O)[C@H](CC(=O)O)NC(=O)CNC(=O)[C@H](CCCN=C(N)N)NC1=O`, for which the IC50 on Integrin alpha-V/beta-3 [3] came out at 110 µM.
On to `CC[C@H](C)[C@@H]([C@@H](CC(=O)N1CCC[C@H]1[C@H](OC)[C@@H](C)C(=O)N[C@H](C)[C@@H](O)c1ccccc1)OC)N(C)C(=O)[C@@H](NC(=O)[C@H](C(C)C)N(C)C(=O)OCc1ccc(NC(=O)[C@H](CCCNC(=N)N)NC(=O)[C@@H](NC(=O)CCCCC(=O)N2Cc3ccccc3C#Cc3ccccc32)C(C)C)cc1)C(C)C` (X1-VR[PABC][NMeV]V[Dil][Dolaproine]-X2), for which the IC50 in the assay on SK-OV-3 [1] is 1000 nM; with MCF7 [2], 22.3 µM.
In the same order, the values of `CC[C@H](C)[C@@H]([C@@H](CC(=O)N1CCC[C@H]1[C@H](OC)[C@@H](C)C(=O)N[C@H](C)[C@@H](O)c1ccccc1)OC)N(C)C(=O)[C@@H](NC(=O)[C@H](C(C)C)N(C)C(=O)OCc1ccc(NC(=O)[C@H](CCCNC(=N)N)NC(=O)[C@@H](NC(=O)CCCCC(=O)N2Cc3ccccc3-c3nnn(CCCC(=O)N[C@@H](CCCNC(=N)N)C(=O)NCC(=O)N[C@@H](CC(=O)O)C(=O)N[C@@H](CCCNC(=N)N)C(=O)NCC(=O)N[C@@H](CC(=O)N[C@H]4CSSC[C@@H](C(=O)O)NC(=O)[C@H](CC(=O)O)NC(=O)CNC(=O)[C@H](CCCNC(=N)N)NC(=O)[C@H](CC(=O)O)NC(=O)CNC(=O)[C@H](CCCNC(=N)N)NC4=O)C(=O)NCCCC[C@@H]4NC(=O)[C@H](Cc5ccccc5)NC(=O)[C@H](CC(=O)O)NC(=O)CNC(=O)[C@H](CCCN=C(N)N)NC4=O)c3-c3ccccc32)C(C)C)cc1)C(C)C` are 440 nM and 19.9 µM.
In the case of `[N-]=[N+]=NCCCC(=O)N[C@@H](CCCNC(=N)N)C(=O)NCC(=O)N[C@@H](CC(=O)N[C@H]1CSSC[C@@H](C(=O)O)NC(=O)[C@H](CC(=O)O)NC(=O)CNC(=O)[C@H](CCCNC(=N)N)NC(=O)[C@H](CC(=O)O)NC(=O)CNC(=O)[C@H](CCCNC(=N)N)NC1=O)C(=O)N[C@@H](CCCNC(=N)N)C(=O)NCC(=O)N[C@@H](CC(=O)O)C(=O)NCCCC[C@@H]1NC(=O)[C@H](Cc2ccccc2)NC(=O)[C@H](CC(=O)O)NC(=O)CNC(=O)[C@H](CCCN=C(N)N)NC1=O`, the inhibition of growth at 40 µM with SK-OV-3 [5] is 28.1%; in the assay with MCF7 [18] it was 23.8%. Besides, the figures for the inhibition of growth at 0.04 µM in the assay with MCF7 [6] and in the assay with SK-OV-3 [13] were 17.5% and 14.4%, respectively. The inhibition of growth at 0.0004 µM in the assay with SK-OV-3 [7] was determined as 13.1%; in the assay on MCF7 [10], 18.3%. In addition, the inhibition of growth at 4 µM was determined as 22.6% in the assay with MCF7 [8] and 23.9% with SK-OV-3 [17]. Moreover, the IC50 on Integrin alpha-V/beta-3 [3] worked out at 2.13 µM. In addition, the values for the inhibition of growth at 0.4 µM in the assay with SK-OV-3 [9] and in the assay with MCF7 [15] were 15.4% and 17.6%, respectively. Further, the inhibition of growth at 0.004 µM amounted to 13.4% in the assay with MCF7 [11] and 19.5% with SK-OV-3 [12]. The figures for the inhibition of growth at 400 µM in the assay with SK-OV-3 [14] and in the assay with MCF7 [16] were 28.8% and 30.2%, respectively.
